Experimental data: PMC2784880 (2009)

Target: T1, trypanothione synthetase-amidase (TRYS) (Trypanosoma brucei, UniProt Q586P2)
T1 sequence (Q586P2 1-627): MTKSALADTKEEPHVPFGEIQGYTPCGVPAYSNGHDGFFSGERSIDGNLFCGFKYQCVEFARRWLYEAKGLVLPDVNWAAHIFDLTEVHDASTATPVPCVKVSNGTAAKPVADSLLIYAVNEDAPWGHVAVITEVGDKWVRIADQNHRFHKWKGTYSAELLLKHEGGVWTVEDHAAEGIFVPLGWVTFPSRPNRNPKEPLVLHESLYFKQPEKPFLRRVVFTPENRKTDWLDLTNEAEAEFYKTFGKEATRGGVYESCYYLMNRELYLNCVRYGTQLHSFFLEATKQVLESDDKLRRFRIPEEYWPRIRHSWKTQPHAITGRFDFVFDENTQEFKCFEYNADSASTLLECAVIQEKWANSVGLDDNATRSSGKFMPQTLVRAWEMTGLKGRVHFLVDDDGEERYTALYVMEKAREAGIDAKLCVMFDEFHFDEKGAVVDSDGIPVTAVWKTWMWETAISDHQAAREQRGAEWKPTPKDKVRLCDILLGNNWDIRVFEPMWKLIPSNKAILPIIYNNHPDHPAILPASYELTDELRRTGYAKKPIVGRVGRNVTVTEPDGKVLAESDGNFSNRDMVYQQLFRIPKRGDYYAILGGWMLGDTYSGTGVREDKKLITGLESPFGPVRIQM
Assay: inhibition of recombinant TRYS
Format: biochemical

CN(C)CCCNC(=O)Cn1nc(-c2cccc(F)c2)c2ccccc21 [DDU 86439, N-(3-(dimethylamino)propyl)-2-(3-(3-fluorophenyl)-1H-indazol-1-yl)acetamide]
IC50: 45 nM
